# Source: PubChem BioAssay (NCI)
#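 The compound was tested at five concentrations on cells cultured in 96-well plates, with a 48-hour exposure period. GI50 is the concentration that inhibits growth by half. TGI: concentration producing complete growth inhibition.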
# What was measured:
# Test in all cases: NCI tumour cell line growth inhibition, 48 h
# CAKI-1 renal = system: CAKI-1 renal
# OVCAR-8 ovarian = system: OVCAR-8 ovarian
# EKVX NSCLC = system: EKVX NSCLC
# 786-0 renal = system: 786-0 renal
# HS 578T breast = system: HS 578T breast
# LOX IMVI melanoma = system: LOX IMVI melanoma
# SK-MEL-2 melanoma = system: SK-MEL-2 melanoma
# T-47D breast = system: T-47D breast
# HCT-15 colon = system: HCT-15 colon
# MDA-MB-435 = system: MDA-MB-435
# MOLT-4 leukemia = system: MOLT-4 leukemia
# NCI-H226 lung = system: NCI-H226 lung
# SF-295 CNS = system: SF-295 CNS
# SNB-19 CNS = system: SNB-19 CNS
# U251 CNS = system: U251 CNS
# UACC-257 melanoma = system: UACC-257 melanoma
# A549 NSCLC = system: A549 NSCLC
# NCI-H522 lung = system: NCI-H522 lung
# SF-539 CNS = system: SF-539 CNS
# ACHN renal = system: ACHN renal
# COLO 205 colon = system: COLO 205 colon
# SK-MEL-5 melanoma = system: SK-MEL-5 melanoma
# HOP-92 NSCLC = system: HOP-92 NSCLC
# A498 renal = system: A498 renal
# MALME-3M melanoma = system: MALME-3M melanoma
# UO-31 renal = system: UO-31 renal
# HT29 colon = system: HT29 colon
# SW-620 colon = system: SW-620 colon
# RPMI-8226 leukemia = system: RPMI-8226 leukemia
# MDA-MB-231 breast = system: MDA-MB-231 breast
compound,measurement,setting,value
COc1ccc(C(C)=C(c2ccc(OCCCN(C)C)cc2)c2ccc(OCCCN(C)C)cc2)cc1,GI50,CAKI-1 renal,2710 nM
same,TGI,CAKI-1 renal,5350 nM
same,GI50,OVCAR-8 ovarian,3620 nM
same,TGI,OVCAR-8 ovarian,7600 nM
same,GI50,EKVX NSCLC,2980 nM
same,TGI,EKVX NSCLC,5890 nM
same,GI50,786-0 renal,491 nM
same,TGI,786-0 renal,1460 nM
same,GI50,HS 578T breast,2440 nM
same,TGI,HS 578T breast,6220 nM
same,GI50,LOX IMVI melanoma,625 nM
same,TGI,LOX IMVI melanoma,2080 nM
same,GI50,SK-MEL-2 melanoma,3330 nM
same,TGI,SK-MEL-2 melanoma,6330 nM
same,GI50,T-47D breast,1570 nM
same,TGI,T-47D breast,4980 nM
same,GI50,HCT-15 colon,1090 nM
same,TGI,HCT-15 colon,3790 nM
same,GI50,MDA-MB-435,537 nM
same,TGI,MDA-MB-435,1830 nM
same,GI50,MOLT-4 leukemia,1080 nM
same,TGI,MOLT-4 leukemia,4050 nM
same,GI50,NCI-H226 lung,3000 nM
same,TGI,NCI-H226 lung,6280 nM
same,GI50,SF-295 CNS,2490 nM
same,TGI,SF-295 CNS,5290 nM
same,GI50,SNB-19 CNS,3200 nM
same,TGI,SNB-19 CNS,6060 nM
same,GI50,U251 CNS,2710 nM
same,TGI,U251 CNS,6000 nM
same,GI50,UACC-257 melanoma,3270 nM
same,TGI,UACC-257 melanoma,6420 nM
same,GI50,A549 NSCLC,2990 nM
same,TGI,A549 NSCLC,7480 nM
same,GI50,NCI-H522 lung,2420 nM
same,TGI,NCI-H522 lung,5330 nM
same,GI50,SF-539 CNS,788 nM
same,TGI,SF-539 CNS,2850 nM
same,GI50,ACHN renal,2620 nM
same,TGI,ACHN renal,5230 nM
same,GI50,COLO 205 colon,799 nM
same,TGI,COLO 205 colon,3080 nM
same,GI50,SK-MEL-5 melanoma,2570 nM
same,TGI,SK-MEL-5 melanoma,5200 nM
same,GI50,HOP-92 NSCLC,1100 nM
same,TGI,HOP-92 NSCLC,4270 nM
same,GI50,A498 renal,2730 nM
same,TGI,A498 renal,5510 nM
same,GI50,MALME-3M melanoma,558 nM
same,TGI,MALME-3M melanoma,1890 nM
same,GI50,UO-31 renal,2740 nM
same,TGI,UO-31 renal,5400 nM
same,GI50,HT29 colon,426 nM
same,TGI,HT29 colon,867 nM
same,GI50,SW-620 colon,982 nM
same,TGI,SW-620 colon,3620 nM
same,GI50,RPMI-8226 leukemia,2180 nM
same,TGI,RPMI-8226 leukemia,8530 nM
same,GI50,MDA-MB-231 breast,1550 nM
